These results are taken from ChEMBL document CHEMBL3611979, “Design, synthesis and biological characterization of selective LIMK inhibitors” (Bioorg Med Chem Lett, 2015).

Where only a bound is given, the exact number is not on record here.

The target of data set [1] is cAMP-dependent protein kinase (PKA) (Homo sapiens, UniProt P22694+P17612+P22612). Nature of the data set: Inhibition of PKA (unknown origin) by radiometric assay. It is filed as protein assay.
For the next data set, the target named is LIM domain kinase 2 (Homo sapiens, UniProt P53671). The experiment in a line: Inhibition of LIMK2 (unknown origin) by radiometric assay.
Sequence of LIM domain kinase 2 (P53671 whole entry, the tested form may be a part): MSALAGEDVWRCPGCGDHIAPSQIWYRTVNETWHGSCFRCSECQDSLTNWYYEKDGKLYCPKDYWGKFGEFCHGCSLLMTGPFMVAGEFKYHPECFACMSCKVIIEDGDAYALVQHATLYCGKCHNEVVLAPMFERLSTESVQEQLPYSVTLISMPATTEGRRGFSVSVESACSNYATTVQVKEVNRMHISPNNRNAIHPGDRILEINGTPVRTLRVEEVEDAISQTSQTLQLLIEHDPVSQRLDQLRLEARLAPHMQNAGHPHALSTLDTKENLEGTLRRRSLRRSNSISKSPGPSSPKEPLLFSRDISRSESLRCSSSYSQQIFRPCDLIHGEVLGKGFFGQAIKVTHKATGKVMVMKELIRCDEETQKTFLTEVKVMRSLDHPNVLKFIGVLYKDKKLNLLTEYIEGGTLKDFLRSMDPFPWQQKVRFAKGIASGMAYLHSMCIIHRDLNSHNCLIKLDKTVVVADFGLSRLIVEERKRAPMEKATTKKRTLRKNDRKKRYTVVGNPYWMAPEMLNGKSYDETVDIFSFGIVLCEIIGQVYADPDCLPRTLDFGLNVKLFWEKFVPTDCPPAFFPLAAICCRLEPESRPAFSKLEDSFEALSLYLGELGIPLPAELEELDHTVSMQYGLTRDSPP
The target of data set [2] is Rho-associated protein kinase 2 (Homo sapiens, UniProt O75116). The experiment in a line: Inhibition of ROCK2 (unknown origin) by radiometric assay.
Sequence of Rho-associated protein kinase 2 (O75116 whole entry, the tested form may be a part): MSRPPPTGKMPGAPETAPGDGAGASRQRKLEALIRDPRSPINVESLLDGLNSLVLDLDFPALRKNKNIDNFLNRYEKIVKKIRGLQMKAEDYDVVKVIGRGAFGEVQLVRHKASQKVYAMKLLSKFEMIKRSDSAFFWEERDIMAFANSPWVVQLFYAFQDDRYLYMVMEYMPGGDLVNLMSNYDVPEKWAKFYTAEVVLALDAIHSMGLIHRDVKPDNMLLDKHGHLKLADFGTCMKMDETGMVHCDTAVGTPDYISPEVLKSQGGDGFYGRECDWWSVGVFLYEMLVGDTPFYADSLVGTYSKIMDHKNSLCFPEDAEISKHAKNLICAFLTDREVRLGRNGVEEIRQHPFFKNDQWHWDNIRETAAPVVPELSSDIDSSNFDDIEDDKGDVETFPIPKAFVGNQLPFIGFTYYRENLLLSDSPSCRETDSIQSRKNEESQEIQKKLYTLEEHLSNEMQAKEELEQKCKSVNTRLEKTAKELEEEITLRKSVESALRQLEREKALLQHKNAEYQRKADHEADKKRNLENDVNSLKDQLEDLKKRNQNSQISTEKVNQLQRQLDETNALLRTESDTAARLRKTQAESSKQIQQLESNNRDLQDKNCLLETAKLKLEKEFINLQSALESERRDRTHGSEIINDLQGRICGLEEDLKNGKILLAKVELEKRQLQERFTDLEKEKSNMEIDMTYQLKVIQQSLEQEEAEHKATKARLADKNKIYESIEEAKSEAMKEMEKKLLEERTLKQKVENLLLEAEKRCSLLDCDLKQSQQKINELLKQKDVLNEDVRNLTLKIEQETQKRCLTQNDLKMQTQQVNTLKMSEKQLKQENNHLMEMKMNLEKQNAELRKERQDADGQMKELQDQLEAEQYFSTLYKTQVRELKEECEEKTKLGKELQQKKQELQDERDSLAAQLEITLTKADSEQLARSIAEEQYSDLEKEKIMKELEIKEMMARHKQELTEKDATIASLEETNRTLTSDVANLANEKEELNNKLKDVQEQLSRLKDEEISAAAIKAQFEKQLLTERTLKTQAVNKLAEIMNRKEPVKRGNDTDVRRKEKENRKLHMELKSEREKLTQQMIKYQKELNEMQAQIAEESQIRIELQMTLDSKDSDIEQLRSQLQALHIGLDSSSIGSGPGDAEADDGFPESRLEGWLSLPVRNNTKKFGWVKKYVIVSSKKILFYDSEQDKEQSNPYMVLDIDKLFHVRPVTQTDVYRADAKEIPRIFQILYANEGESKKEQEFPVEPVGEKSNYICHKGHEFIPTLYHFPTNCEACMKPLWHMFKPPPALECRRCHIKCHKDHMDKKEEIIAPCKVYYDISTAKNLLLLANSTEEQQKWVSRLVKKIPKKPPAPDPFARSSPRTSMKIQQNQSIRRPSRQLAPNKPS
A further data set has as its target LIM domain kinase 1 (Homo sapiens, UniProt P53667). The experiment in a line: Inhibition of LIMK1 (unknown origin) by radiometric assay.
For a further data set, the system named is Oryctolagus cuniculus. Nature of the data set: Toxicity in ocular normotensive New Zealand White rabbit assessed as induction of conjunctival hyperemia at 200 µg/eye drop dosed as single topical administration measured 1 to 6 hrs post compound instillation. The following applies: in vivo, topical_or_ocular. It is filed as organism-based, Conjunctiva.
The nature of data set [3]: Inhibition of LIMK in human HeLa cells assessed as reduction in cofilin Ser3 phosphorylation by sandwich immunoassay. The data set is classed as cell-based.
Data set [4] addresses RAC-alpha serine/threonine-protein kinase (Homo sapiens, UniProt P31749). The experiment in a line: Inhibition of AKT1 (unknown origin) by radiometric assay.
Data set [5] is described as follows: Inhibition of ROCK in rat A7r5 cells assessed as reduction in MLC Thr18/Ser19 phosphorylation by direct-ELISA method. The data set is classed as cell-based. (An ELISA detects its analyte on a solid surface through an enzyme-linked reagent.)

Sequence of RAC-alpha serine/threonine-protein kinase (P31749 whole entry): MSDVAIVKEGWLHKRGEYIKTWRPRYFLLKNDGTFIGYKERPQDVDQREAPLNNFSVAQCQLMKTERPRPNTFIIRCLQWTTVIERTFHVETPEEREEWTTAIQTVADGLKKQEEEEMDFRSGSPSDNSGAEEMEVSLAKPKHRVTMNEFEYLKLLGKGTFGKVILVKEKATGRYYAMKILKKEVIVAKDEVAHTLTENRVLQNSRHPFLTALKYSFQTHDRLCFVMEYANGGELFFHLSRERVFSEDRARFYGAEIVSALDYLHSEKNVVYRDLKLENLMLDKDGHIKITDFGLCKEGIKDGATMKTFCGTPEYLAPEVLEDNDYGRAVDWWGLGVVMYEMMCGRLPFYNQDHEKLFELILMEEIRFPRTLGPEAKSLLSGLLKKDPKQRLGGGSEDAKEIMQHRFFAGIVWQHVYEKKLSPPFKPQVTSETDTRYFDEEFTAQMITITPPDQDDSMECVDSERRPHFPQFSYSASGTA
Sequence of LIM domain kinase 1 (P53667 whole entry, the tested form may be a part): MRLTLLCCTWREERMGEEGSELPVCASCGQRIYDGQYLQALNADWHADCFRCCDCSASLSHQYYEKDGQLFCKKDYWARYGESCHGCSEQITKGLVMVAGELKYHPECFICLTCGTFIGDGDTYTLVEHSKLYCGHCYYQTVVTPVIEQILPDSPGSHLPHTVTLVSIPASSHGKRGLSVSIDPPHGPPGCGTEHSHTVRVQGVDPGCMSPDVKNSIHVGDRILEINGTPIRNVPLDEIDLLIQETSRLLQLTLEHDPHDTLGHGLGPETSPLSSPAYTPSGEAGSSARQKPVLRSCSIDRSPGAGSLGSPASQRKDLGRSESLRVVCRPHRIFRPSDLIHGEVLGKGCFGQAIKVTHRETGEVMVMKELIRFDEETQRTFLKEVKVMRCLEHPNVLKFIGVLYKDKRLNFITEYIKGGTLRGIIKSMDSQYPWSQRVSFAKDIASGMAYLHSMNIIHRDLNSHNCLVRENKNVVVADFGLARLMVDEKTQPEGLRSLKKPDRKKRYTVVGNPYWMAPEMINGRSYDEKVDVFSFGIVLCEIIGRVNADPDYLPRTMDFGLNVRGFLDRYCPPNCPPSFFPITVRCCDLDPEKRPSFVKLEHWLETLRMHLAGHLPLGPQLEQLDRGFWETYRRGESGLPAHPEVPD

Consider `COC(=O)c1cccc(NC(=O)C2(N)CCN(c3ccncn3)CC2)c1`, for which the IC50 (usually the midpoint of a concentration-inhibition curve) in data set [1] is over 1000 nM; at LIM domain kinase 2, over 10000 nM; in data set [2] it was over 1000 nM; at LIM domain kinase 1 it was over 1000 nM.
Turning to `C#CCOC(=O)c1cccc(NC(=O)C2(CN(C)C)CCN(c3ncnc4[nH]cc(C)c34)CC2)c1`, the IC50 is 2.2 nM in data set [1], under 1 nM against LIM domain kinase 2, 16 nM in data set [2] and 7.6 nM against LIM domain kinase 1.
Regarding `COC(=O)c1cccc(NC(=O)C2(CN(C)C)CCN(c3ncnc4[nH]cc(C#N)c34)CC2)c1`, the half-maximal inhibitory concentration (IC50) in data set [1] is under 1 nM; against LIM domain kinase 2, 4 nM; in data set [2] it was 2.5 nM; on LIM domain kinase 1, 25 nM.
Regarding `CCC(C)OC(=O)c1cccc(NC(=O)C2(CN(C)C)CCN(c3ncnc4[nH]cc(C)c34)CC2)c1` (stereo not given), the IC50 came to 24 nM in data set [1], 4.6 nM on LIM domain kinase 2, 137 nM in data set [2] and 50 nM against LIM domain kinase 1.
With `Cc1c[nH]c2ncnc(N3CCC(CN(C)C)(C(=O)Nc4cccc(C(=O)OC(C)C)c4)CC3)c12`, the IC50 in data set [1] came out at 22 nM; on LIM domain kinase 2, 2.2 nM; in data set [2] it was 53 nM; at LIM domain kinase 1, 41 nM.
Turning to `COC(=O)c1cccc(NC(=O)C2(CN(C)C)CCN(c3ncnc4[nH]ncc34)CC2)c1`, the 50% inhibitory concentration (IC50) in data set [1] is 5.1 nM; at LIM domain kinase 2 it was 193 nM; in data set [2], 62 nM; against LIM domain kinase 1, 282 nM.
`COC(=O)c1cccc(NC(=O)C2(N(C)C)CCN(c3ncnc4[nH]cc(C)c34)CC2)c1`: the IC50 in data set [1] is 150 nM; against LIM domain kinase 2 it was 12 nM; in data set [2], 63 nM; at LIM domain kinase 1 it was 37 nM.
Consider `COC(=O)c1cccc(NC(=O)C2(CN(C)C)CCN(c3ncnc4[nH]cc(F)c34)CC2)c1`, for which the IC50 in data set [1] was under 1 nM; against LIM domain kinase 2 it was 2.8 nM; in data set [2] it was 5.7 nM; against LIM domain kinase 1, 20 nM.
In the case of `COC(=O)c1cccc(NC(=O)C2(N)CCN(c3ncnc4[nH]ccc34)CC2)c1`, the IC50 in data set [1] was found to be 69 nM; on LIM domain kinase 2 it was 9.6 nM; in data set [2], 67 nM; on LIM domain kinase 1, 31 nM.
Take `COC(=O)c1cccc(NC(=O)C2(CN)CCN(c3ncnc4[nH]cc(C)c34)CC2)c1`: the IC50 was under 1 nM in data set [1], under 1 nM at LIM domain kinase 2, under 1 nM in data set [2] and 16 nM against LIM domain kinase 1.
Consider `COC(=O)c1ccc(NC(=O)C2(CN(C)C)CCN(c3ncnc4[nH]cc(C)c34)CC2)cc1`, for which the IC50 came to 2.7 nM in data set [1], 7.7 nM at LIM domain kinase 2, 7.2 nM in data set [2] and 41 nM against LIM domain kinase 1.
The corresponding values for `COC(=O)c1cccc(NC(=O)C2(CN(C)C)CCN(c3ncnc4c3CC(=O)N4)CC2)c1` are 1130 nM, 1860 nM, over 10000 nM and 1000 nM.
On to `COC(=O)c1cccc(NC(=O)C2(N)CCN(c3ncnc4[nH]cc(C)c34)CC2)c1`, for which the IC50 turned out to be 81 nM in data set [1], 7.4 nM at LIM domain kinase 2, 100 nM in data set [2] and 18 nM against LIM domain kinase 1.
For the compound `Cc1c[nH]c2ncnc(N3CCC(CN)(C(=O)Nc4cccc(OC(=O)N(C)C)c4)CC3)c12` [LX-7101], the Activity entry with Oryctolagus cuniculus is “Toxic”. The EC50 (in general, the concentration that produces a half-maximal response) was determined as 8.7 nM in data set [3] and 2300 nM in data set [5]. Besides, the IC50 is under 1 nM in data set [4], under 1 nM in data set [1], 1.6 nM against LIM domain kinase 2 and 10 nM in data set [2].
Consider `COC(=O)c1cccc(NC(=O)C2(CN(C)C)CCN(c3ncnc4[nH]c(C)c(C)c34)CC2)c1`, for which the IC50 in data set [4] is over 1000 nM; in data set [1], over 1000 nM; against LIM domain kinase 2, 1.6 nM; in data set [2], over 1000 nM; against LIM domain kinase 1 it was 26 nM. For the same compound, the EC50 in data set [5] was over 10000 nM.
For `COC(=O)c1cccc(NC(=O)C2(N)CCN(c3ccnc(N)n3)CC2)c1`, the IC50 in data set [1] was over 1000 nM; against LIM domain kinase 2 it was over 10000 nM; in data set [2], 416 nM; against LIM domain kinase 1 it was over 1000 nM.
With `COC(=O)c1cccc(NC(=O)C2(N)CCN(c3cc(NC(C)=O)ncn3)CC2)c1`, the concentration for half-maximal inhibition (IC50) in data set [1] is over 1000 nM; against LIM domain kinase 2 it was 494 nM; in data set [2], over 1000 nM; against LIM domain kinase 1, 239 nM.
Regarding `COC(=O)c1cccc(NC(=O)C2(N)CCN(c3ccnc(NC(C)=O)n3)CC2)c1`, the concentration for half-maximal inhibition (IC50) in data set [1] is over 1000 nM; against LIM domain kinase 2, over 10000 nM; in data set [2], over 1000 nM; against LIM domain kinase 1, over 10000 nM.
Turning to `COC(=O)c1cccc(NC(=O)C2(CN(C)C)CCN(c3ncnc4[nH]cc(C)c34)CC2)c1`, the IC50 turned out to be 24 nM in data set [1], 1.5 nM against LIM domain kinase 2, 8.9 nM in data set [2] and 27 nM at LIM domain kinase 1.
With `COC(=O)c1cccc(NC(=O)C2(N)CCN(c3cc(N)ncn3)CC2)c1`, the IC50 in data set [1] was over 1000 nM; on LIM domain kinase 2, 4560 nM; in data set [2] it was 2060 nM; against LIM domain kinase 1, 945 nM.
Take `COC(=O)c1cccc(NC(=O)C2(CN(C)C)CCN(c3ccnc4[nH]ncc34)CC2)c1`: the IC50 in data set [1] is 3.8 nM; against LIM domain kinase 2, 274 nM; in data set [2], 11 nM; on LIM domain kinase 1, 65 nM.
Regarding `Cc1[nH]c2ncnc(N3CCC(CN(C)C)(C(=O)Nc4cccc(OC(=O)N(C)C)c4)CC3)c2c1C`, the EC50 in data set [3] is 9 nM; in data set [5] it was over 10000 nM. For the same compound, the IC50 is over 1000 nM in data set [4]; over 1000 nM in data set [1]; 1.4 nM against LIM domain kinase 2; over 1000 nM in data set [2]; 22 nM against LIM domain kinase 1.
With `COC(=O)c1cccc(NC(=O)C2(CN(C)C)CCN(c3ncnc4[nH]ccc34)CC2)c1`, the IC50 in data set [1] is 1.1 nM; on LIM domain kinase 2, 13 nM; in data set [2], 1.8 nM; on LIM domain kinase 1, 23 nM.
Turning to `COC(=O)Cc1cccc(NC(=O)C2(CN(C)C)CCN(c3ncnc4[nH]cc(C)c34)CC2)c1`, the IC50 in data set [1] is 7 nM; against LIM domain kinase 2, under 1 nM; in data set [2] it was 56 nM; on LIM domain kinase 1, 57 nM.
`COC(=O)c1cccc(NC(=O)C2(CN(C)C)CCN(c3ncnc4[nH]c(C)cc34)CC2)c1`: the IC50 worked out at 332 nM in data set [1], 8 nM against LIM domain kinase 2, 652 nM in data set [2] and 23 nM against LIM domain kinase 1.
For the compound `COC(=O)COc1cccc(NC(=O)C2(CN(C)C)CCN(c3ncnc4[nH]cc(C)c34)CC2)c1`, the IC50 in data set [1] is 5.4 nM; against LIM domain kinase 2 it was under 1 nM; in data set [2], 7.9 nM; at LIM domain kinase 1 it was 38 nM.
The corresponding values for `CCCOC(=O)c1cccc(NC(=O)C2(CN(C)C)CCN(c3ncnc4[nH]cc(C)c34)CC2)c1` are 5.8 nM, 2.1 nM, 41 nM and 50 nM.
In the case of `Cc1c[nH]c2ncnc(N3CCC(CN(C)C)(C(=O)Nc4cccc(OC(=O)N(C)C)c4)CC3)c12`, the IC50 was 2.6 nM in data set [1], under 1 nM against LIM domain kinase 2, 40 nM in data set [2] and 19 nM against LIM domain kinase 1.
